Reference: US7745636B2, “Hepatitis C virus inhibitors” (Bristol-Myers Squibb Company, priority 2006, dated 2010)

Each compound was assayed on HCV 1b-377-neo replicon cells (assay: HCV Replicon assay, HCV 1b-377-neo replicon cells). Conditions: Hepatitis C virus, Table 2, read-out: Range (EC50 against HCV 1b).
Type: cell-based, HCV 1b genotype

| SMILES | EC50 [nM] |
| --- | --- |
| COC(=O)N[C@@H](C(=O)N1CCC[C@H]1c1ncc(-c2ccc(-c3ccc(-c4cnc([C@@H]5CCCN5C(=O)[C@@H]5CCCO5)[nH]4)cc3C)cc2)[nH]1)c1ccccc1 [Example 128, methyl ((1R)-2-((2S)-2-(5-(2′-methyl-4′-(2-((2S)-1-((2S)-tetrahydro-2-furanylcarbonyl)-2-pyrrolidinyl)-1H-imidazol-5-yl)-4-biphenylyl)-1H-imidazol-2-yl)-1-pyrrolidinyl)-2-oxo-1-phenylethyl)carbamate] | 0.001 to 0.999 |
| COC(=O)N[C@@H](C(=O)N1CCC[C@H]1c1ncc(-c2ccc(-c3ccc(-c4cnc([C@@H]5CCCN5C(=O)[C@H]5CCCO5)[nH]4)cn3)cc2)[nH]1)c1ccccc1 [Example 141, methyl ((1R)-2-oxo-1-phenyl-2-((2S)-2-(5-(4-(5-(2-((2S)-1-((2R)-tetrahydro-2-furanylcarbonyl)-2-pyrrolidinyl)-1H-imidazol-5-yl)-2-pyridinyl)phenyl)-1H-imidazol-2-yl)-1-pyrrolidinyl)ethyl)carbamate] | 0.001 to 0.999 |
| COC(=O)N[C@H](C(=O)N1CCC[C@H]1c1ncc(-c2ccc(-c3ccc(-c4cnc([C@@H]5CCCN5C(=O)[C@@H](Nc5ncccn5)C(C)C)[nH]4)cc3)cc2)[nH]1)C(C)C [cj-11, methyl ((1S)-2-methyl-1-(((2S)-2-(5-(4′-(2-((2S)-1-(N-2-pyrimidinyl-L-valyl)-2-pyrrolidinyl)-1H-imidazol-5-yl)-4-biphenylyl)-1H-imidazol-2-yl)-1-pyrrolidinyl)carbonyl)propyl)carbamate] | 0.001 to 0.999 |
| C[C@H](NC(=O)[C@@H](c1ccccc1)N(C)C)c1ncc(-c2cnc(-c3ccc(-c4cnc([C@@H]5CCCN5C(=O)[C@@H](c5ccccc5)N(C)C)[nH]4)cc3)cn2)[nH]1 [Example 152j-18, (2R)-2-(dimethylamino)-N-((1S)-1-(5-(5-(4-(2-((2S)-1-((2R)-2-(dimethylamino)-2-phenylacetyl)-2-pyrrolidinyl)-1H-imidazol-5-yl)phenyl)-2-pyrazinyl)-1H-imidazol-2-yl)ethyl)-2-phenylacetamide] | 0.001 to 0.999 |
| COC(=O)N[C@@H](C)C(=O)N(C)[C@@H](C)c1ncc(-c2ccc(-c3ccc(-c4[nH]c([C@@H]5CCCN5C(=O)[C@H](C)NC(=O)OC)nc4C(F)(F)F)cc3)cc2)[nH]1 [Example J42.a, methyl ((1S)-2-((2S)-2-(5-(4′-(2-((1S)-1-((N-(methoxycarbonyl)-L-alanyl)(methyl)amino)ethyl)-1H-imidazol-5-yl)-4-biphenylyl)-4-(trifluoromethyl)-1H-imidazol-2-yl)-1-pyrrolidinyl)-1-methyl-2-oxoethyl)carbamate] | 0.001 to 0.999 |
| CN(C)[C@@H](C(=O)N1CCC[C@H]1c1ncc(-c2ccc(-c3ccc(-c4cnc([C@@H]5CCCN5C(=O)[C@@H](c5ccccc5)N(C)C)[nH]4)cc3)cc2)[nH]1)c1ccccc1 [Example 1, (1R,1′R)-2,2′-(4,4′-biphenyldiylbis(1H-imidazole-5,2-diyl(2S)-2,1-pyrrolidinediyl))bis(N,N-dimethyl-2-oxo-1-phenylethanamine)] | 0.001 to 0.999 |
| COC(=O)N[C@@H](C(=O)N1CCC[C@H]1c1ncc(-c2ccc(-c3ccc(-c4cnc([C@@H]5CCCN5C(=O)Cc5cccnc5)[nH]4)cn3)cc2)[nH]1)c1ccccc1 [Example 143, methyl ((1R)-2-oxo-1-phenyl-2-((2S)-2-(5-(4-(5-(2-((2S)-1-(3-pyridinylacetyl)-2-pyrrolidinyl)-1H-imidazol-5-yl)-2-pyridinyl)phenyl)-1H-imidazol-2-yl)-1-pyrrolidinyl)ethyl)carbamate] | 0.001 to 0.999 |
| COC(=O)N[C@H](C(=O)N1CCC[C@H]1c1ncc(-c2ccc(-c3ccc(-c4cnc([C@@H]5CCCN5C(=O)[C@@H](NC(=O)OC)C(C)C)[nH]4)cc3C(N)=O)cc2)[nH]1)C(C)C [Example M118, methyl((1S)-1-(((2S)-2-(5-(2′-carbamoyl-4′-(2-((2S)-1-((2S)-2-((methoxycarbonyl)amino)-3-methylbutanoyl)-2-pyrrolidinyl)-1H-imidazol-5-yl)-4-biphenylyl)-1H-imidazol-2-yl)-1-pyrrolidinyl)carbonyl)-2-methylpropyl)carbamate] | 1000 to 10000 |
| CO[C@@H](C(=O)N1CCC[C@H]1c1ncc(-c2ccc(-c3ccc(-c4cnc([C@@H]5CCCN5C(=O)[C@H](OC)c5ccccc5)[nH]4)cn3)cc2)[nH]1)c1ccccc1 [Example 135, 5-(2-((2S)-1-((2R)-2-methoxy-2-phenylacetyl)-2-pyrrolidinyl)-1H-imidazol-5-yl)-2-(4-(2-((2S)-1-((2R)-2-methoxy-2-phenylacetyl)-2-pyrrolidinyl)-1H-imidazol-5-yl)phenyl)pyridine] | 0.001 to 0.999 |
| C[C@@H](c1ncc(-c2ccc(-c3ccc(-c4cnc([C@H](C)N(C)C(=O)[C@@H](c5ccccc5)N5CCCCC5)[nH]4)cc3)cc2)[nH]1)N(C)C(=O)[C@@H](c1ccccc1)N1CCCCC1 [Example 24-18-3, (2R,2′R)-N,N′-(4,4′-biphenyldiylbis (1H-imidazol-5,2-diyl(1S)-1,1-ethanediyl))bis(N-methyl-2-phenyl-2-(1-piperidinyl)acetamide)] | 0.001 to 0.999 |
| CN(C)[C@@H](C(=O)N1CCC[C@H]1c1ncc(-c2cnc(-c3cnc(-c4cnc([C@@H]5CCCN5C(=O)[C@@H](c5ccccc5)N(C)C)[nH]4)cn3)cn2)[nH]1)c1ccccc1 [Example 153c-5, (1R,1′R)-2,2′-(2,2′-bipyrazine-5,5′-diylbis(1H-imidazole-5,2-diyl(2S)-2,1-pyrrolidinediyl))bis(N, N-dimethyl-2-oxo-1-phenylethanamine)] | 1 to 99 |
| COC(=O)N[C@@H](C(=O)N1CCC[C@H]1c1ncc(-c2cnc(-c3cnc(-c4cnc([C@@H]5CCCN5C(=O)[C@H](NC(=O)OC)c5ccccc5)[nH]4)cn3)cn2)[nH]1)c1ccccc1 [Example 153c-6, dimethyl (2,2′-bipyrazine-5,5′-diylbis(1H-imidazole-5,2-diyl(2S)-2,1-pyrrolidinediyl((1R)-2-oxo-1-phenyl-2,1-ethanediyl))) biscarbamate] | 1 to 99 |
| C[C@H](NC(=O)[C@@H](c1ccccc1)N(C)C)c1ncc(-c2cnc(-c3ccc(-c4cnc([C@@H]5CCCN5C(=O)[C@@H](c5ccccc5)N(C)C)[nH]4)cc3)nc2)[nH]1 [Example 152j-16, (2R)-2-(dimethylamino)-N-((1S)-1-(5-(2-(4-(2-((2S)-1-((2R)-2-(dimethylamino)-2-phenylacetyl)-2-pyrrolidinyl)-1H-imidazol-5-yl)phenyl)-5-pyrimidinyl)-1H-imidazol-2-yl)ethyl)-2-phenylacetamide] | 0.001 to 0.999 |
| CN(C)[C@@H](C(=O)N1CCC[C@H]1c1ncc(-c2ccc(-c3ccc(-c4cnc([C@@H]5CCCN5C(=O)[C@@H](c5ccccc5)N(C)C)[nH]4)cc3C(F)(F)F)cc2)[nH]1)c1ccccc1 [Example 130, (1R,1′R)-2,2′-((2-(trifluoromethyl)-4,4′-biphenyldiyl)bis(1H-imidazole-5,2-diyl(2S)-2,1-pyrrolidinediyl))bis(N,N-dimethyl-2-oxo-1-phenylethanamine)] | 0.001 to 0.999 |
| COC(=O)N[C@@H](C(=O)N1CCC[C@H]1c1ncc(-c2cnc(-c3ccc(-c4[nH]c([C@@H]5CCCN5C(=O)[C@H](NC(=O)OC)c5ccccc5)nc4C(F)(F)F)cc3)nc2)[nH]1)c1ccccc1 [Example J46, methyl ((1R)-2-((2S)-2-(5-(4-(5-(2-((2S)-1-((2R)-2-((methoxycarbonyl)amino)-2-phenylacetyl)-2-pyrrolidinyl)-1H-imidazol-5-yl)-2-pyrimidinyl)phenyl)-4-(trifluoromethyl)-1H-imidazol-2-yl)-1-pyrrolidinyl)-2-oxo-1-phenylethyl) carbamate] | 0.001 to 0.999 |
| CN(C)[C@@H](C(=O)N1CSC[C@H]1c1ncc(-c2ccc(-c3ccc(-c4cnc([C@@H]5CSCN5C(=O)[C@@H](c5ccccc5)N(C)C)[nH]4)cc3)cc2)[nH]1)c1ccccc1 [Example 148, (1R,1′R)-2,2′-(4,4′-biphenyldiylbis(1H-imidazole-5,2-diyl(4R)-1,3-thiazolidine-4,3-diyl))bis(N,N-dimethyl-2-oxo-1-phenylethanamine)] | 1 to 99 |

Same assay, conditions: Table 2, read-out: Range (EC50 against HCV 1b)

| SMILES | EC50 [nM] |
| --- | --- |
| CNCC(=O)N1CCC[C@H]1c1ncc(-c2ccc(-c3ccc(-c4cnc([C@@H]5CCCN5C(=O)[C@@H](NC(=O)OC)C(C)C)[nH]4)cc3)cc2)[nH]1 [LS20] | 0.001 to 0.999 |
| CC(C)[C@H](NC(=O)N(C)C)C(=O)O [OL-2] | 0.001 to 0.999 |
| COC(=O)N[C@H](C(=O)N1CCC[C@H]1c1ncc(-c2ccc(-c3ccc(-c4cnc([C@@H]5CCCN5C(=O)CNCc5ccccc5)[nH]4)cc3)cc2)[nH]1)C(C)C [LS22] | 0.001 to 0.999 |
| O=C1N[C@H](C(=O)N2CCC[C@H]2c2ncc(-c3ccc(-c4ccc(-c5cnc([C@@H]6CCCN6C(=O)[C@@H]6CCOC(=O)N6)[nH]5)cc4)cc3)[nH]2)CCO1 [LS11] | 1000 to 10000 |
| COC(=O)NC(C(=O)NC(C)c1ncc(-c2ccc(-c3ccc(-c4cnc(C5CCCN5C(=O)C(NC(=O)OC)C(C)C)[nH]4)cc3)cc2)[nH]1)C(C)C (stereo not drawn) [Example R26] | 0.001 to 0.999 |
